Source: patent publication US6020342A, “Fused imidazo[1,2-A]pyridines” (Shinnippon Pharmaceutical, Inc., priority 1995, dated 2000)

What was measured:
gastric acid secretion [1] = experiment: Inhibition of Gastric Acid Secretion Observed Under Acute Fistula Method; type: in vivo, male Wistar rats; settings: Rattus norvegicus; 30 mg/kg intraduodenally, rats, histamine 10 mg/kg s.c., cumulative 2 h
Experimental: Inhibition of Gastric Acid Secretion Observed Under Acute Fistula Method
Male Wistar rats (6-8 weeks) fasted for 24 hours (water ad libitum) were used. The rats were anesthetized by intraperitoneal administration of 1.25 g/kg of urethane. The abdomen was incised, and acute gastric fistula was connected to the stomach. Two ml of saline was injected into the stomach, and recovered every 20 minutes. The gastric acid secretion was determined by titrating of gastric juice by 150 mM sodium hydroxide up to pH7.0 using an autotitrator. Test compounds (30 mg/kg) suspended in a 0.5% aqueous sodium carboxymethylcellulose (CMC-Na) solution were administered intraduodenally. After 1 hour, gastric acid secretion was stimulated by subcutaneous administration of histamine dihydrochloride dissolved in saline (10 mg/kg). Inhibition (%) of gastric acid secretion was determined by calculating cumulative amount of the acid secretion during two hours after histamine stimulation and then comparing the cumulative amount with that in the control group. In the control group, only 0.5% aqueous CMC-Na solution was administered intraduodenally.

H^+ /K^+ -ATPase = biological target: T1, H^+ /K^+ -ATPase (Sus scrofa, UniProt P19156); experiment: Inhibitory Action on H^+ /K^+ -ATPase Activity; type: biochemical; settings: microsome fraction from porcine gastric mucosa, pH7.4, 37° C., 30 min preincubation, 15 min reaction
T1 construct: a microsome fraction prepared from porcine gastric mucosa was used as a standard enzyme; from tissue; host or cells: porcine gastric mucosa, microsome fraction
Experimental: Inhibitory Action on H^+ /K^+ -ATPase Activity
According to the method of Hongo et al. [The Japanese Journal of Pharmacology, 52, p295, (1990)], a microsome fraction prepared from porcine gastric mucosa was used as a standard enzyme. The standard enzyme (10-20lig protein) and the test compound (0.1-100 μM) dissolved in dimethylsulfoxide was incubated at 37° C. for 30 minutes in the 50 mM Tris-acetate buffer (pH7.4, containing 2 mM magnesium chloride, 5 mM potassium chloride). The enzyme reaction was started by adding adenosinetriphosphate (ATP). Tris at the final concentration of 2 mM, and the reaction was kept at 37° C. for 15 minutes. The reaction was stopped by adding chilled 10% trichloroacetic acid. Inorganic phosphate released during the reaction was calorimetrically determined according to the method of Fiske-Subbarow [The Journal of Biological Chemistry, 66, p375, (1925)]. H^+ /K^+ -ATPase activity was determined by the difference of the enzyme activities under the conditions with or without potassium chloride. The inhibitory activities of test compounds were determined as the 50% inhibitory concentration (IC50 value) from reaction-concentration curve, and the results are shown in Table 3.

gastric acid secretion [2] = experiment: Inhibition of Gastric Acid Secretion Observed Under Stomach Perfusion Method; type: in vivo, male Sprague Dawrey rats; settings: Rattus norvegicus, ip, 1 h; rats, histamine i.v. 8 mg/kg/hr, inhibition one hour after administration (1-10 mg/kg, "intrapenetorially"); read-out: ID50 (dose showing 50% inhibition of acid secretion)
Experimental: Inhibition of Gastric Acid Secretion Observed Under Stomach Perfusion Method
Male Sprague Dawrey rats (6-7weeks) fasted for 24 hours were used (water ad libitum). The rats were anesthetized by intraperitoneal administration of 1.25 g/kg of urethane. The abdomen was incised, and gastral cavity was perfused with saline during experiment. The perfusate was titrated by 10 mM sodium hydroxide up to pH5.5 using an autotitrator in accordance with Stat-method. Gastric acid secretion was stimulated by intravenous administration of histamine dihydrochloride (8 mg/kg/hr). Two hours after histamine stimulation, a test compound 1-10 mg/kg) was administered intrapenetorially. The test compound was mixed with small amount of polysorbate-80, and the mixture was suspended in saline. The test compound was evaluated using ID50 (dose showing 50% inhibition of acid secretion) which was calculated based on inhibition of the acid secretion observed one hour after administration of the compound.

[3] = design: species or system male ICR mice; settings: mouse, in vivo, po, 10080 min
Experimental: Male ICR mice (6 weeks, 3 mice per group) fasted for 16 hours were used ad libitum). A test compound suspended in 5% aqueous gum arabic solution was orally administered. After administration, mortality of the animals observed during 7 days and approximate lethal dose was determined.

T1 sequence (P19156 2-1034 limits assumed): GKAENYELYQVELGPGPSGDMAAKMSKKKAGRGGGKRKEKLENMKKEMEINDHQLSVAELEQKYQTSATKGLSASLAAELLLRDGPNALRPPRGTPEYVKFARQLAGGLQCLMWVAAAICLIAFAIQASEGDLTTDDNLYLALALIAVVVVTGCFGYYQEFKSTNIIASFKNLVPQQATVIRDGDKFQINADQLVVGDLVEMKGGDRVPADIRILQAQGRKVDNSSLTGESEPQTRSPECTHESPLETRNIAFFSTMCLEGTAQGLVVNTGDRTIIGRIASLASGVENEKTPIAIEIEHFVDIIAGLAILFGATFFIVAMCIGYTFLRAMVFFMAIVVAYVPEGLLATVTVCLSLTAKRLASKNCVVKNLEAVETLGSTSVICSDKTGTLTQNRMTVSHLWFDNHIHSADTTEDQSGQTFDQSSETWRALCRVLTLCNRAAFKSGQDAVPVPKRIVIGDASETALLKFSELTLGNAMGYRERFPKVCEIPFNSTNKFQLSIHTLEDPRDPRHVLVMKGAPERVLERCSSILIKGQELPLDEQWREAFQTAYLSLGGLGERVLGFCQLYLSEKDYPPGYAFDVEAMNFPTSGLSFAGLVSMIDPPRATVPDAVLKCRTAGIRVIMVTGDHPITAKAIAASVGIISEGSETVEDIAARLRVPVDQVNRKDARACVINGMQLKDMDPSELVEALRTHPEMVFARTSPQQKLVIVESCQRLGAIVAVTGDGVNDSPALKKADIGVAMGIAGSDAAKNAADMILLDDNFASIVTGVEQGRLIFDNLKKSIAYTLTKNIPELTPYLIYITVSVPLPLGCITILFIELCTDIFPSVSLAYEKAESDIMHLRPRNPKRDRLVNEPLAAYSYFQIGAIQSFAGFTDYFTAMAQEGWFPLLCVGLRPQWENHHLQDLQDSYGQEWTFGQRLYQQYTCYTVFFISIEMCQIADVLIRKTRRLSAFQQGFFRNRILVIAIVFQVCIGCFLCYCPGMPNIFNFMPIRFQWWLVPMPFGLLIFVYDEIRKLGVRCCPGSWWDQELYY
T1 sequence (P18434 whole entry partner): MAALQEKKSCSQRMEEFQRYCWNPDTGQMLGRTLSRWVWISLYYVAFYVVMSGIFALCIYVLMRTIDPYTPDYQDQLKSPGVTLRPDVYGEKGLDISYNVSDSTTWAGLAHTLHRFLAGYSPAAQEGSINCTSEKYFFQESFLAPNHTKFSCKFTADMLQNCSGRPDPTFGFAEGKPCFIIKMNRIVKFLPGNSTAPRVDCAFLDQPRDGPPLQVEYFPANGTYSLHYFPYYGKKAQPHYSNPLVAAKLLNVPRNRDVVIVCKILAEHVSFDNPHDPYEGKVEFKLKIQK

## Cc1ccccc1-c1nc2c3c(Cl)cccc3ccn2c1N [Compound 7, 3-Amino-10-chloro-2-(2-methylphenyl)imidazo[2,1-a]isoquinoline]
Gastric acid secretion [1]
  inhibition in vivo at 30 mg/kg: 74.9%
H^+ /K^+ -ATPase
  IC50: 8 µM

## Cc1ccc2ccn3c(N)c(-c4ccccc4C)nc3c2c1 [Compound 10, 3-Amino-9-methyl-2-(2-methylphenyl)imidazo[2,1-a]isoquinoline]
Gastric acid secretion [2]
  ED50: 4.2 mg/kg
H^+ /K^+ -ATPase
  IC50: 20 µM

## CCCc1cc2ccccc2c2nc(-c3ccccc3C)c(N)n12 [Compound 12]
Gastric acid secretion [2]
  ED50: 7.2 mg/kg
H^+ /K^+ -ATPase
  IC50: 12.5 µM

## COc1cn2c(N)c(-c3ccccc3C)nc2c2ccccc12 [Compound 24, 3-Amino-6-methoxy-2-(2-methylphenyl)imidazo[2,1-a]isoquinoline]
Gastric acid secretion [2]
  ED50: 5.4 mg/kg
H^+ /K^+ -ATPase
  IC50: 13.5 µM

## Cc1ccccc1-c1nc2c3cc(OC(=O)C(C)C)ccc3ccn2c1N [Compound 43, 3-Amino-9-isobutyryloxy-2-(2-methylphenyl)imidazo[2,1-a]isoquinoline]
Gastric acid secretion [2]
  ED50: 7 mg/kg

## CSc1cccc2c1ccn1c(N)c(-c3ccccc3C)nc21 [Compound 46, 3-Amino-2-(2-methylphenyl)-7-(methylthio)imidazo[2,1-a]isoquinoline]
Gastric acid secretion [1]
  inhibition in vivo at 30 mg/kg: 73.8%
H^+ /K^+ -ATPase
  IC50: 8.4 µM

## COc1ccc2cc(C)n3c(N)c(-c4ccccc4C)nc3c2c1 [Compound 56, 3-Amino-9-methoxy-5-methyl-2-(2-methylphenyl)imidazo[2,1-a]isoquinoline]
Gastric acid secretion [2]
  ED50: 6.5 mg/kg

## COc1ccc2ccn3c(N)c(-c4sccc4C)nc3c2c1 [Compound 75, 3-Amino-9-methoxy-2-(3-methyl-2-thienyl)imidazo[2,1-a]isoquinoline]
Gastric acid secretion [1]
  inhibition in vivo at 30 mg/kg: 73.3%
H^+ /K^+ -ATPase
  IC50: 6.4 µM

## Cc1sccc1-c1nc2c3ccccc3ccn2c1N [Compound 78, 3-Amino-2-(2-methyl-3-thienyl)imidazo[2,1-a]isoquinoline]
Gastric acid secretion [2]
  ED50: 1.6 mg/kg
H^+ /K^+ -ATPase
  IC50: 17 µM

## Cc1cc(-c2nc3c4ccccc4ccn3c2N)c(C)o1 [Compound 91, 3-Amino-2-(2,5-dimethyl-3-furyl)imidazo[2,1-a]isoquinoline]
[3]
  Approximate lethal dose: > 2,000 mg/kg
H^+ /K^+ -ATPase
  IC50: 5.6 µM

## Cn1cccc1-c1nc2c3ccccc3ccn2c1N [Compound 94, 3-Amino-2-(1-methyl-2-pyrrolyl)imidazo[2,1-a]isoquinoline]
Gastric acid secretion [2]
  ED50: 5.8 mg/kg
H^+ /K^+ -ATPase
  IC50: 3 µM

## Cc1ccccc1-c1nc2n(c1N)CCc1ccccc1-2 [Compound 96, 3-Amino-2-(2-methylphenyl)-5,6-dihydroimidazo[2,1-a]isoquinoline]
Gastric acid secretion [2]
  ED50: 8.8 mg/kg
H^+ /K^+ -ATPase
  IC50: 17.5 µM

## COc1ccc2c(c1)-c1nc(-c3ccccc3C)c(N)n1CC2 [Compound 103, 3-Amino-9-methoxy-2-(2-methylphenyl)-5,6-dihydroimidazo[2,1-a]isoquinoline]
Gastric acid secretion [2]
  ED50: 7.4 mg/kg

## CCCN(CC)c1c(-c2ccccc2C)nc2c3ccccc3ccn12 [Compound 207, 3-(N-Ethyl-N-propylamino)-2-(2-methylphenyl)imidazo[2,1-a]isoquinoline]
Gastric acid secretion [1]
  inhibition in vivo at 30 mg/kg: 67.4%
H^+ /K^+ -ATPase
  IC50: 9.3 µM

## CCCN(CC)c1c(-c2sccc2C)nc2c3ccccc3ccn12 [Compound 212, 3-(N-Ethyl-N-propylamino)-2-(3-methyl-2-thienyl)imidazo[2,1-a]isoquinoline]
[3]
  Approximate lethal dose: > 2,000 mg/kg
H^+ /K^+ -ATPase
  IC50: 1.9 µM

## Cc1ccccc1-c1nc2c3ccccc3ccn2c1N1CCCCC1 [Compound 217, 2-(2-Methylphenyl)-3-piperidinoimidazo[2,1-a]isoquinoline]
[3]
  Approximate lethal dose: > 2,000 mg/kg
H^+ /K^+ -ATPase
  IC50: 4.7 µM

## CCN(Cc1ccc(C)cc1)c1c(-c2ccccc2C)nc2c3ccccc3ccn12 [Compound 219, 3-[N-Ethyl-N-(4-methylbenzyl)amino]-2-(2-methylphenyl)imidazo[2,1-a]isoquinoline]
H^+ /K^+ -ATPase
  IC50: 3.6 µM

## CCc1ccccc1-c1nc2c3ccccc3ccn2c1N=Cc1ccc(C)cc1 [Compound 226, 2-(2-Ethylphenyl)-3-(4-methylbenzylideneamino)imidazo[2,1-a]isoquinoline]
H^+ /K^+ -ATPase
  IC50: 1.9 µM

## Cc1cc2sccc2c2nc(-c3ccccc3)c(N)n12 [Compound 230, 3-Amino-5-methyl-2-phenylimidazo[1,2-a]thieno[3,2-c]pyridine]
Gastric acid secretion [2]
  ED50: 6.2 mg/kg
H^+ /K^+ -ATPase
  IC50: 20 µM

## Nc1c(-c2ccccc2Cl)nc2c3ccsc3ccn12 [Compound 232, 3-Amino-2-(2-chlorophenyl)imidazo[1,2-a]thieno[3,2-c]pyridine]
Gastric acid secretion [2]
  ED50: 3.2 mg/kg
H^+ /K^+ -ATPase
  IC50: 17 µM

## Cc1ccccc1-c1nc2c3ccsc3ccn2c1N [Compound 234, 3-Amino-2-(2-methylphenyl)imidazo[1,2-a]thieno[3,2-c]pyridine]
Gastric acid secretion [2]
  ED50: 1.8 mg/kg
H^+ /K^+ -ATPase
  IC50: 7.6 µM

## CCc1cc2sccc2c2nc(-c3ccccc3C)c(N)n12 [Compound 238, 3-Amino-5-ethyl-2-(2-methylphenyl)imidazo[1,2-a]thieno[3,2-c]pyridine]
H^+ /K^+ -ATPase
  IC50: 2.9 µM

## Cc1ccccc1-c1nc2c3ccsc3c(C)c(C)n2c1N [Compound 239, 3-Amino-5,6-dimethyl-2-(2-methylphenyl)imidazo[1,2-a]thieno[3,2-c]pyridine]
H^+ /K^+ -ATPase
  IC50: 26 µM

## COc1ccccc1-c1nc2c3ccsc3cc(C)n2c1N [Compound 245, 3-Amino-2-(2-methoxyphenyl)-5-methylimidazo[1,2-a]thieno[3,2-c]pyridine]
H^+ /K^+ -ATPase
  IC50: 9 µM

## Cc1cc(Cl)ccc1-c1nc2c3ccsc3cc(C)n2c1N [Compound 248, 3-Amino-2-(4-chloro-2-methylphenyl)-5-methylimidazo[1,2-a]thieno[3,2-c]pyridine]
H^+ /K^+ -ATPase
  IC50: 4.7 µM

## Cc1sccc1-c1nc2c3ccsc3cc(C)n2c1N [Compound 255, 3-Amino-5-methyl-2-(2-methyl-3-thienyl)imidazo[1,2-a]thieno[3,2-c]pyridine]
Gastric acid secretion [2]
  ED50: 1 mg/kg
H^+ /K^+ -ATPase
  IC50: 6.6 µM

## Cc1cc(-c2nc3c4ccsc4ccn3c2N)c(C)s1 [Compound 264, 3-Amino-2-(2,5-dimethyl-3-thienyl)imidazo[1,2-a]thieno[3,2-c]pyridine]
H^+ /K^+ -ATPase
  IC50: 1.2 µM

## Cn1cccc1-c1nc2c3ccsc3ccn2c1N [Compound 275]
H^+ /K^+ -ATPase
  IC50: 24 µM

## Cc1ccccc1-c1nc2c3ccn(C)c3ccn2c1N [Compound 291, 3-Amino-7-methyl-2-(2-methylphenyl)imidazo[1,2-a]pyrrolo[3,2-c]pyridine]
Gastric acid secretion [2]
  ED50: 6.4 mg/kg
H^+ /K^+ -ATPase
  IC50: 4.8 µM

## Cc1ccccc1-c1nc2c3ccn(Cc4ccccc4)c3ccn2c1N [Compound 292, 3-Amino-7-benzyl-2-(2-methylphenyl)imidazo[1,2-a]pyrrolo[3,2-c]pyridine]
H^+ /K^+ -ATPase
  IC50: 8.8 µM

## Cc1ccccc1-c1nc2c3sccc3ccn2c1N [Compound 310, 3-Amino-2-(2-methylphenyl)imidazo[1,2-a]thieno[2,3-c]pyridine]
[3]
  Approximate lethal dose: > 2,000 mg/kg
Gastric acid secretion [2]
  ED50: 3 mg/kg
H^+ /K^+ -ATPase
  IC50: 26 µM

## Cc1ccccc1-c1nc2c3sccc3cc(C)n2c1N [Compound 311, 3-Amino-5-methyl-2-(2-methylphenyl)imidazo[1,2-a]thieno[2,3-c]pyridine]
H^+ /K^+ -ATPase
  IC50: 8 µM

## CCNc1c(-c2ccccc2C)nc2c3ccsc3ccn12 [Compound 340, 3-Ethylamino-2-(2-methylphenyl)imidazo[1,2-a]thieno[3,2-c]pyridine]
Gastric acid secretion [2]
  ED50: 4.9 mg/kg
H^+ /K^+ -ATPase
  IC50: 33 µM

## CCCN(CC)c1c(-c2ccccc2C)nc2c3sccc3ccn12 [Compound 356, 3-(N-Ethyl-N-propylamino)-2-(2-methylphenyl)imidazo[1,2-a]thieno[2,3-c]pyridine]
H^+ /K^+ -ATPase
  IC50: 8.4 µM
